Measured values: patent US11072598B2, “Somatostatin modulators and uses thereof” (CRINETICS PHARMACEUTICALS, INC., priority 2017, dated 2021)

Key:
[1] = biological target: T1, hSSTR4 (Homo sapiens, UniProt P31391); assay: inhibition of cAMP via hSSTR4; format: cell-based; conditions: selectivity for inhibition of cAMP via hSSTR2 vs. hSSTR4
T1 construct: expressed in transfected cells
Text: General overview: All five SSTR subtypes are Gi coupled G-protein coupled receptors (GPCRs) that lead to decreases in intracellular cyclic AMP (cAMP) when activated by an agonist. Therefore, measurement of intracellular cAMP levels can be used to assess whether compounds of the invention are agonists of SSTR subtypes (John Kelly, Troy Stevens, W. Joseph Thompson, and Roland Seifert, Current Protocols in Pharmacology, 2005, 2.2.1-2.2). One example of an intracellular cAMP assay is described below. cAMP assay protocol:
Four days prior to the assay, 5,000 Chinese hamster ovary cells (CHO-K1, ATCC #CCL-61) stably expressing the human somatostatin receptor subtype 2 are plated in each well of a 96-well tissue culture-treated plate in Ham's F12 growth media (ThermoFisher #10-080-CM) supplemented with 10% donor bovine serum (Gemini Bio-Products #100-506), 100 U/mL penicillin; 100 ug/mL streptomycin; 2 mM L-glutamine (Gemini Bio-Products #400-110) and 0.2 mg/mL hygromycin B (GoldBio #31282-04-9). The cells are cultured at 37° C., 5% CO2 and 95% humidity. On the day of the assay, the media is aspirated and the cells are treated with 50 μL of 1.6 μM NKH477 (Sigma #N3290) plus various dilutions of compounds of the invention in assay buffer [1× Hank's Balanced Salt Solution (ThermoFisher #SH3058802), 0.5 mM HEPES pH 7.4, 0.1% bovine serum albumin, 0.2 mM 3-Isobutyl-1-methylxanthine (IBMX, VWR #200002-790)]. The cells are incubated for 20 minutes at 37° C. (the final concentration of the compounds of the invention are typically 0-10,000 nM). The cells are treated with 50 μL of lysis buffer (HRTF cAMP kit, Cisbio). The lysate is transferred to 384-well plates and cAMP detection and visualization antibodies are added and incubated for 1-24 hours at room temperature. The time-resolved fluorescent signal is read with a Tecan M1000Pro multiplate reader. The intracellular cAMP concentrations are calculated by regression to a standard curve and are plotted vs. the concentration of the compounds of the invention and the EC50 of the compounds are calculated using standard methods. All data manipluations are in GraphPad Prism v6.

[2] = biological target: T2, human somatostatin receptor subtype 2 (Homo sapiens, UniProt P30874); assay: cAMP functional assay for SSTR2 agonists; format: cell-based; conditions: inhibition of cAMP activities via human SST2 receptor (SSTR2), CHO-K1 cells; read-out: EC50
T2 construct: expressed in transfected cells
T2 sequence (P30874 whole entry): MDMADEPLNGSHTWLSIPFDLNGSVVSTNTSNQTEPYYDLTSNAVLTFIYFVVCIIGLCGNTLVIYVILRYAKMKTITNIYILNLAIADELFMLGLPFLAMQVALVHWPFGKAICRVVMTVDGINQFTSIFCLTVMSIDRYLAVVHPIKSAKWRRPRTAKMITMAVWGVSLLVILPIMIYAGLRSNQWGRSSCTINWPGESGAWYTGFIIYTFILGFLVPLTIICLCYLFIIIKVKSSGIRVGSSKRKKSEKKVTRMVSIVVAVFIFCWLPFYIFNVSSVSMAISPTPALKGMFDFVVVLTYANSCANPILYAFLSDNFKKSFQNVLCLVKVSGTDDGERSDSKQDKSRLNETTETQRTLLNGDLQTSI
Method in brief: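 CHO-K1 cells stably expressing human SSTR2 were treated for 20 min at 37 °C with compound plus NKH477 (added as 1.6 μM) in HBSS with IBMX. Intracellular cAMP was measured by HTRF against a standard curve. EC50 values came from concentration-response curves.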

T1 sequence (P31391 whole entry): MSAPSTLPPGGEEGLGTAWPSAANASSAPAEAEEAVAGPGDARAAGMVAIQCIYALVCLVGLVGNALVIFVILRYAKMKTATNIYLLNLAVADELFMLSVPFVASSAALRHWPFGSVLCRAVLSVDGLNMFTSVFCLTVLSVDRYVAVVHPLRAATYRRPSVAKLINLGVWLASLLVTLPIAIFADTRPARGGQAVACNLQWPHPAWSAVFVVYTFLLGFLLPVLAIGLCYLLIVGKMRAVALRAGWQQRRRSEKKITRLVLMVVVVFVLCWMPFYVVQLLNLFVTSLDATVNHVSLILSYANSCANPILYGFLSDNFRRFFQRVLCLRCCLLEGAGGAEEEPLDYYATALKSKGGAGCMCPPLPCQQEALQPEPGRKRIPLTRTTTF

| Compound | hSST4/hSST2 (ratio) [1] | EC50 [2] [nM] |
| --- | --- | --- |
| CNc1ncc(-c2cc(C)cc(F)c2)c(N2CCC(N)CC2)c1-c1nc2cc(F)c(F)cc2[nH]1 [Compound 1-55, 4-(4-aminopiperidin-1-yl)-3-(5,6-difluoro-1H-1,3-benzodiazol-2-yl)-5-(3-fluoro-5-methylphenyl)-N-methylpyridin-2-amine] | a (above 50) | < 10 |
| COc1cc(F)cc2nc(-c3c(N(C)C)ncc(-c4cc(C)cc(F)c4)c3N3CCC(N)CC3)[nH]c12 [Compound 4-6, 4-(4-aminopiperidin-1-yl)-3-(5-fluoro-7-methoxy-1H-1,3-benzodiazol-2-yl)-5-(3-fluoro-5-methylphenyl)-N,N-dimethylpyridin-2-amine] | b (between 15 and 50) | < 10 |
| COc1cc(F)cc2[nH]c(-c3c(N)ncc(-c4cc(C)cc(F)c4)c3N3CCC(N)CC3)nc12 [Compound 1-58, 4-(4-aminopiperidin-1-yl)-3-(6-fluoro-4-methoxy-1H-1,3-benzodiazol-2-yl)-5-(3-fluoro-5-methylphenyl)pyridin-2-amine] | c (between 2.5 and 15) | < 10 |
| Cc1cc(F)cc(-c2cnc(N)c(-c3nc4cccc(C)c4[nH]3)c2N2CCC(N)CC2)c1 [Compound 1-10, 4-(4-aminopiperidin-1-yl)-5-(3-fluoro-5-methylphenyl)-3-(7-methyl-1H-1,3-benzodiazol-2-yl)pyridin-2-amine] | c (between 2.5 and 15) | < 10 |
| COc1cc(F)c2nc(-c3c(N)ncc(-c4cc(C)cc(F)c4)c3N3CCC(N)CC3)[nH]c2c1 [Compound 1-59, 4-(4-aminopiperidin-1-yl)-5-(3-fluoro-5-methylphenyl)-3-(4-fluoro-6-methoxy-1H-1,3-benzodiazol-2-yl)pyridin-2-amine] | b (between 15 and 50) | < 10 |
| COc1ncc(-c2cc(C)cc(F)c2)c(N2CCC(N)CC2)c1-c1nc2cc(F)ccc2[nH]1 [Compound 2-1, 1-[3-(5-fluoro-1H-1,3-benzodiazol-2-yl)-5-(3-fluoro-5-methylphenyl)-2-methoxypyridin-4-yl]piperidin-4-amine] | a (above 50) | < 10 |
| CNc1ncc(-c2cc(C)cc(F)c2)c(N2CCC(N)CC2)c1-c1nc2cc(Cl)ccc2[nH]1 [Compound 1-28, 4-(4-aminopiperidin-1-yl)-3-(5-chloro-1H-1,3-benzodiazol-2-yl)-5-(3-fluoro-5-methylphenyl)-N-methylpyridin-2-amine] | a (above 50) | < 10 |
| COCCNc1ncc(-c2cc(C)cc(F)c2)c(N2CCC(N)CC2)c1-c1nc2c(F)cc(F)cc2[nH]1 [Compound 1-56] | a (above 50) | < 10 |
| CNc1ncc(-c2cc(C)cc(F)c2)c(N2CCC(N)CC2)c1-c1nc2cccc(OC)c2[nH]1 [Compound 1-71, 4-(4-aminopiperidin-1-yl)-5-(3-fluoro-5-methylphenyl)-3-(7-methoxy-1H-1,3-benzodiazol-2-yl)-N-methylpyridin-2-amine] | c (between 2.5 and 15) | < 10 |
| Cc1cc(F)cc(-c2cnc(N3CCOCC3)c(-c3nc4cc(F)cc(F)c4[nH]3)c2N2CCC(N)CC2)c1 [Compound 4-8, 1-[3-(5,7-difluoro-1H-1,3-benzodiazol-2-yl)-5-(3-fluoro-5-methylphenyl)-2-(morpholin-4-yl)pyridin-4-yl]piperidin-4-amine] | a (above 50) | < 10 |
| COc1cc(F)cc2nc(-c3c(N4CC(F)C4)ncc(-c4cc(C)cc(F)c4)c3N3CCC(N)CC3)[nH]c12 [Compound 4-7, 1-[3-(5-fluoro-7-methoxy-1H-1,3-benzodiazol-2-yl)-5-(3-fluoro-5-methylphenyl)-2-(3-fluoroazetidin-1-yl)pyridin-4-yl]piperidin-4-amine] | a (above 50) | < 10 |
| CONC(=O)c1ccc2cc(-c3nncc(-c4cc(C)cc(F)c4)c3N3CCC(N)CC3)[nH]c2c1 [Compound 3-20, 2-[4-(4-aminopiperidin-1-yl)-5-(3-fluoro-5-methylphenyl)pyridazin-3-yl]-N-methoxy-1H-indole-6-carboxamide] |  | 10 to 100 |
| Cc1cc(F)cc(-c2cnc(N)c(-c3nc4ccc(Cl)cc4n3C)c2N2CCC(N)CC2)c1 [Compound 1-29, 4-(4-aminopiperidin-1-yl)-3-(6-chloro-1-methyl-1H-1,3-benzodiazol-2-yl)-5-(3-fluoro-5-methylphenyl)pyridin-2-amine] |  | < 10 |
| CNC1CCN(c2c(-c3cc(C)cc(F)c3)cnc(N)c2-c2nc3cc(C#N)cc(F)c3[nH]2)CC1 [Compound 4-3, 2-[2-amino-5-(3-fluoro-5-methylphenyl)-4-[4-(methylamino)piperidin-1-yl]pyridin-3-yl]-7-fluoro-1H-1,3-benzodiazole-5-carbonitrile] |  | < 10 |
| Cc1cc(F)cc(-c2cnc(N)c(C=NOC(C)(C)C)c2N2CCC(N)CC2)c1 [Compound 1-35] |  | < 10 |
| COC(=O)c1ccc2cc(-c3nncc(-c4cc(C)cc(F)c4)c3N3CCC(N)CC3)[nH]c2c1 [Compound 3-18, methyl 2-[4-(4-aminopiperidin-1-yl)-5-(3-fluoro-5-methylphenyl)pyridazin-3-yl]-1H-indole-6-carboxylate] |  | < 10 |
| Cc1cc(F)cc(-c2cnc(N)c(-c3nc4cc(OC5CCC5)ccc4[nH]3)c2N2CCC(N)CC2)c1 [Compound 1-19, 4-(4-aminopiperidin-1-yl)-3-(5-cyclobutoxy-1H-1,3-benzodiazol-2-yl)-5-(3-fluoro-5-methylphenyl)pyridin-2-amine] |  | < 10 |
| COc1cc(F)cc2nc(-c3c(N)ncc(-c4cccc(C)c4)c3N3CCC(N)CC3)[nH]c12 [Compound 1-93, 4-(4-aminopiperidin-1-yl)-3-(5-fluoro-7-methoxy-1H-1,3-benzodiazol-2-yl)-5-(3-methylphenyl)pyridin-2-amine] |  | < 10 |
| COc1cc(Cl)cc2nc(-c3c(N)ncc(-c4cc(C)cc(F)c4)c3N3CCC(N)CC3)[nH]c12 [Compound 1-94, 4-(4-aminopiperidin-1-yl)-3-(5-chloro-7-methoxy-1H-1,3-benzodiazol-2-yl)-5-(3-fluoro-5-methylphenyl)pyridin-2-amine] |  | < 10 |
| Cc1cc(F)cc(-c2cnc(N)c(-c3nc4cc(N5CC(F)C5)ccc4[nH]3)c2N2CCC(N)CC2)c1 [Compound 1-26, 4-(4-aminopiperidin-1-yl)-5-(3-fluoro-5-methylphenyl)-3-[5-(3-fluoroazetidin-1-yl)-1H-1,3-benzodiazol-2-yl]pyridin-2-amine] |  | < 10 |
| Cc1cc(F)cc(-c2cnnc(-c3cc4cc(C#N)ccc4[nH]3)c2N2CCC(N)CC2)c1 [Compound 3-17, 2-[4-(4-aminopiperidin-1-yl)-5-(3-fluoro-5-methylphenyl)pyridazin-3-yl]-1H-indole-5-carbonitrile] |  | < 10 |
| Cc1cc(C)cc(-c2cnc(N)c(-c3nc4cc(Cl)ccc4[nH]3)c2N2CC[C@@H](N)[C@H](C#N)C2)c1 (relative stereo) [Compound 1-41, trans-4-amino-1-[2-amino-3-(5-chloro-1H-1,3-benzodiazol-2-yl)-5-(3,5-dimethylphenyl)pyridin-4-yl]piperidine-3-carbonitrile] |  | < 10 |
| CO[C@@H]1CN(c2c(-c3cc(C)cc(F)c3)cnc(N)c2-c2nc3cc(Cl)ccc3[nH]2)CC[C@H]1N (relative stereo) [Compound 1-7, 4-[trans-4-amino-3-methoxypiperidin-1-yl]-3-(5-chloro-1H-1,3-benzodiazol-2-yl)-5-(3-fluoro-5-methylphenyl)pyridin-2-amine] |  | < 10 |
| Cc1cc(F)cc(-c2cnc(N)c(-c3nc4cccc(C=NO)c4[nH]3)c2N2CCC(N)CC2)c1 [Compound 1-22, 4-(4-aminopiperidin-1-yl)-5-(3-fluoro-5-methylphenyl)-3-{7-[(hydroxyimino)methyl]-1H-1,3-benzodiazol-2-yl]pyridin-2-amine] |  | < 10 |
| Cc1cc(F)cc(-c2cnc(N)c(-c3nc4cnccc4[nH]3)c2N2CCC(N)CC2)c1 [Compound 1-51, 4-(4-aminopiperidin-1-yl)-5-(3-fluoro-5-methylphenyl)-3-{1H-imidazo[4,5-c]pyridin-2-yl}pyridin-2-amine] |  | < 10 |
